# Conditions: acidic group
row,pKa,SMILES
1,-0.01,Cc1cc(C(=O)O)cc(C)[n+]1O
2,4.44,O=C(O)c1ccc(OCc2ccccc2)cc1
3,6.5,[O-]c1cc(O)cc[nH+]1
4,10.2,Fc1cccc(NC(=S)c2ccc(Cl)cc2)c1
5,6.89,CCc1nsc(O)n1
6,9.61,[O-]C(O)=C1c2ccccc2-c2ccccc21
7,8.13,CCN(CC)C(=S)NC(=O)c1ccc(F)cc1
8,6.75,Cc1ccc(C)c(NN=C(C#N)C#N)c1
9,3.99,O=C(O)c1ccc(I)cc1
10,10.4,Cc1cc(Cc2cc(O)ccc2C)c([O-])c([N+](=O)[O-])c1
11,0.2,O=C(O)Cc1[nH]c2ccccc2[nH+]1
12,7.6,Oc1c(Cc2ccccc2)c(-c2ccccc2)nn1-c1ccccc1
13,14.3,Nc1ccc2cn[nH]c2c1
14,5.4,COC(=O)c1ccc(O)c([N+](=O)[O-])c1
15,10.8,C=C(C)/C=C(\O)C=C(C)C
16,4.59,O=C(O)CCc1ccccc1
17,4,Cc1cc(C)c(C(C(=O)O)c2ccccc2)c(C)c1 (centres undefined)
18,6.47,Cc1ccc(S)cc1
19,10.5,Oc1ccc(F)cc1CN1CCOCC1
20,10.3,Cc1ccc(C(C)C)cc1O
21,10.7,COc1ccc(/C(=C\C(=O)c2ccc(S(=O)(=O)[O-])cc2)CC(=O)c2ccc(S(=O)(=O)[O-])cc2)cc1S(=O)(=O)[O-]
22,9.85,Nc1cccc(O)c1
23,8.74,CSc1ncnc2nc[nH]c12
24,5.75,CC[NH+](CC)Cc1cc([N+](=O)[O-])ccc1O
25,6.7,N#CC(C#N)=NNc1ccccc1C(=O)O
26,1.51,C[NH+]1CSC[C@H]1C(=O)O

row,pKa,SMILES
1,6,Cc1ccc(NN=C(C#N)C#N)c([N+](=O)[O-])c1
2,8.02,C[NH2+]CCS
3,10.7,O/N=C/NO
4,1.71,O=C(O)c1cc[nH+]cc1
5,8.62,OCC(S)CS (centres undefined)
6,3.3,O=C(O)/C(I)=C/c1ccccc1
7,9.65,O=C([O-])CNC(=O)CNS(=O)(=O)c1ccccc1
8,4.32,O=C([O-])C[NH2+]CCc1nnn[nH]1
9,1.2,Oc1nc2nc[nH]c2c(O)[nH+]1
10,4.4,O=C(O)C1=C/C=C\C=C/C=C\1
11,3.41,O=C(O)c1ccc(Cl)s1
12,2.2,C[NH2+]C(C)(C)C(=O)O
13,3.59,Cc1c(Cn2cc[nH+]c2)sc2cc(C(=O)O)ccc12
14,10,Fc1cccc(NC(=S)c2cccc(Br)c2)c1
15,7.95,COc1cccc(NS(=O)(=O)c2ccccc2)c1
16,11.5,O=c1ccccc(O)c1[O-]
17,6.36,O=[N+]([O-])c1cc(Br)ccc1O
18,11.3,O=C1CCc2cc(Cl)c([N+](=O)[O-])cc2C1
19,10.9,O=C(C[n+]1ccccc1)c1ccccc1
20,9.17,OC(CS)CS
21,9.02,Oc1cccc(I)c1
22,4.05,C/C(O)=C/C(=O)O
23,5,Cc1ccc(C(=O)O)[nH]1
24,7.9,CC(=O)c1ccc(O)cc1
25,6.3,C[NH+](C)Cc1cc(C(C)(C)C)cc(C[NH+](C)C)c1O
26,4.64,CCOc1ccc(C(=O)O)cc1

row,pKa,SMILES
1,1.69,Oc1nc2nc[nH]c2c[nH+]1
2,2.24,C[NH2+]CC(=O)O
3,2.4,Oc1cc[n+](O)cc1
4,12.3,Cc1nc2c(N)cccc2[nH]1
5,3,CC(=O)c1ccc(C(=O)O)s1
6,1.23,COc1cccc[n+]1O
7,3.57,CCCCCCCCCC[NH2+]CCC(=O)O
8,7.27,[O-][n+]1cnc(NCc2ccccc2)c2nc[nH]c21
9,10.6,CONc1cc(=O)n(C)c(=O)n1C
10,8.81,Oc1ccccc1F
11,2.91,[NH3+]CC(=O)NCC(=O)NCC(=O)N1CCC[C@H]1C(=O)O
12,6.07,N#Cc1c(-c2nc3ccccc3o2)c(=O)oc2cc(O)ccc12
13,3.79,Cc1cc(I)ccc1C(=O)O
14,3.4,[NH3+]C(CC(=O)[O-])C(=O)NC(CC(=O)O)C(=O)O (centres undefined)
15,5.83,O=CC1CCCC1=O (centres undefined)
16,4.71,Cc1cc(O)ccc1C(=O)O
17,2.45,O=C(O)C(F)c1ccccc1 (centres undefined)
18,10.3,O=C([O-])CCS
19,9.05,COc1cc(OC)nc([N-]S(=O)(=O)c2ccc(O)cc2)n1
20,10.2,Oc1cccc2c1CCC2
21,4.48,CCCCOc1ccc(C(=O)O)cc1
22,10.2,O=[N+]([O-])c1cccc(/C=C/C=N/O)c1
23,5.44,CCOC(=O)c1ccc(O)c([N+](=O)[O-])c1
24,3.24,O=C(O)c1ccc(Br)c([N+](=O)[O-])c1
25,2.95,O=C(O)c1ccccc1Cl
26,7.02,O=c1oc2cc(O)ccc2cc1-c1nc2ccccc2s1

row,SMILES,pKa
1,Ic1nnn[nH]1,2.85
2,C=CCc1ccc(O)c(OC)c1,10
3,C[N+](C)(C)Cc1cccc(O)c1,8.89
4,CCOO,11.8
5,Nc1nc[nH]n1,10.7

# Same assay, conditions: basic group
row,pKa,SMILES
1,7.49,c1cc(N2CCOCC2)c2c(N3CCOCC3)cccc2c1
2,8.94,COc1ccc2nccc(N)c2c1
3,9.65,Nc1ccc2cc3ccc(N)cc3nc2c1
4,6.28,[NH3+]CCc1cnc[nH]1
5,6.65,CC[NH+](CC)CCNc1cc(C)nc(Nc2ccc(Cl)cc2)n1

row,SMILES,pKa
1,CNc1cccc2ccccc12,3.7

# Reference: the pKa sets of Baltruschat and Czodrowski (2020)
